The record followed here is ChEMBL document CHEMBL1201862, “PubChem BioAssay data set” (2004).

SMILES strings stand for the structures.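 Method: 48-hour compound exposure of cells in 96-well plates, five concentrations, linear interpolation of endpoints. GI50: concentration for 50% inhibition of growth.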 Active and inactive are the calls of the source. Rule as the data show it: active = GI50 up to about 1.1 µM and inactive = higher.

In general, GI50 refers to the concentration at which growth is held to half of that of the control.

Among the test systems are TK-10; EKVX; U-251; SK-MEL-2; NCI-H226; IGROV-1; SNB-75; OVCAR-4; HCC 2998; SW-620; HCT-15; SNB-19; MDA-N; A549; M14; OVCAR-3; RPMI-8226; LXFL 529; OVCAR-8; SN12C.
Holding throughout (experiment): DTP human tumour cell line panel, 48 h

`CC(=O)OC1CC(n2cc(F)c(=O)[nH]c2=O)OC1CO` (configuration not stated): the GI50 is 15.9 µM (inactive) in the test on TK-10; 20 µM (inactive) with EKVX; 5.69 µM (inactive) in the test on U-251; > 28.8 µM (inactive) with SK-MEL-2; 49.1 µM (inactive) with NCI-H226; > 61.7 µM (inactive) in the test with IGROV-1. The GI50 in the test with SNB-75 was 3.98 µM (inactive); in the test with OVCAR-4 it was 59.8 µM (inactive); with HCC 2998, < 0.0279 µM (active); in the test on SW-620, 10.8 µM (inactive); in the test with HCT-15 it was 16.1 µM; in the test with SNB-19, 2.72 µM (inactive). The GI50 in the test with MDA-N is 24.3 µM (inactive); in the test on A549, 0.143 µM (active); in the test on M14 it was 2.16 µM (inactive); in the test with OVCAR-3, 13.5 µM (inactive); with RPMI-8226 it was 21.9 µM (inactive); in the test with LXFL 529 it was 0.575 µM (active). Further, the GI50 is 0.668 µM (active) with OVCAR-8 and 1.23 µM (inactive) in the test with SN12C.
As to `COc1ccc2c(c1)CC1c3c(cc4c(c3-2)OCO4)CCN1C` (configuration not stated), the GI50 in the test with TK-10 is 21.1 µM (inactive); in the test on EKVX it was 33.4 µM (inactive); in the test on U-251 it was 31.6 µM (inactive); with SK-MEL-2, 26.5 µM (inactive); in the test with NCI-H226, 24.6 µM (inactive); in the test on IGROV-1, 31.7 µM (inactive). The GI50 in the test on SNB-75 was 22.6 µM (inactive); with OVCAR-4, 23.1 µM (inactive); in the test with HCC 2998 it was 41.1 µM (inactive); in the test with SW-620, 19.5 µM (inactive); in the test on HCT-15 it was 36.9 µM; in the test on SNB-19, 42 µM (inactive). Further, the GI50 was 21.4 µM (inactive) in the test on A549; 22.8 µM (inactive) in the test with M14; 32.5 µM (inactive) in the test on OVCAR-3; 24.8 µM (inactive) in the test on RPMI-8226; 36.5 µM (inactive) with LXFL 529; 21.6 µM (inactive) in the test on OVCAR-8. Moreover, the GI50 in the test with SN12C was 33.3 µM (inactive).
Turning to `CCCCC1CC(c2cccc([N+](=O)[O-])c2)=NO1` (configuration not stated), the GI50 was > 100 µM (inactive) in the test with TK-10; 58.2 µM (inactive) in the test on EKVX; 83.2 µM (inactive) with U-251; > 100 µM (inactive) with SK-MEL-2; > 100 µM (inactive) in the test with NCI-H226; > 100 µM (inactive) in the test with IGROV-1. The GI50 with SNB-75 was > 100 µM (inactive); in the test with OVCAR-4, > 100 µM (inactive); with HCC 2998 it was 58.5 µM (inactive); in the test on SW-620, > 100 µM (inactive); in the test on HCT-15, over 100 µM; in the test on SNB-19, > 100 µM (inactive). In addition, the GI50 in the test with A549 was 30.5 µM (inactive); in the test with M14, > 100 µM (inactive); in the test with OVCAR-3, 76.2 µM (inactive); in the test on RPMI-8226, 74.3 µM (inactive); in the test with LXFL 529, 56.5 µM (inactive); with OVCAR-8, 70.3 µM (inactive). Moreover, the GI50 in the test on SN12C is > 100 µM (inactive).
For `COC(=O)C1C=NNC1C(=O)OC` (configuration not stated), the GI50 in the test on TK-10, in the test on EKVX, in the test with U-251, in the test with SK-MEL-2, in the test with NCI-H226 and in the test on IGROV-1 was > 100 µM (inactive) throughout. The GI50 in the test on SNB-75 was > 100 µM (inactive); in the test on OVCAR-4, > 100 µM (inactive); in the test on HCC 2998, > 100 µM (inactive); in the test with SW-620, > 100 µM (inactive); with HCT-15, over 100 µM; in the test on SNB-19, 57.3 µM (inactive). Also, the GI50 with A549, in the test on M14, in the test on OVCAR-3, in the test with RPMI-8226, in the test on LXFL 529 and in the test with OVCAR-8 was > 100 µM (inactive) throughout. The GI50 in the test with SN12C is > 100 µM (inactive).
As to `CCOC(=O)c1c(C(F)(F)F)oc2c1ccc1nc3nonc3nc12`, the GI50 with TK-10 was 19.4 µM (inactive); in the test with EKVX, 17.9 µM (inactive); in the test on U-251 it was 15.7 µM (inactive); in the test with SK-MEL-2, 19.3 µM (inactive); with NCI-H226 it was 19.9 µM (inactive); in the test with IGROV-1, 23.2 µM (inactive). Moreover, the GI50 in the test with SNB-75 was 13.2 µM (inactive); in the test with OVCAR-4 it was 9.82 µM (inactive); in the test with HCC 2998 it was 24.9 µM (inactive); in the test on SW-620, 16.8 µM (inactive); in the test with HCT-15 it was 17.3 µM; in the test on SNB-19, 18.2 µM (inactive). The GI50 in the test on A549 was 18 µM (inactive); in the test on M14, 9.14 µM (inactive); in the test with OVCAR-3 it was 16.5 µM (inactive); with RPMI-8226 it was 6.07 µM (inactive); in the test on LXFL 529, 14 µM (inactive); with OVCAR-8 it was 16.3 µM (inactive). The GI50 with SN12C was 17.4 µM (inactive).
For the molecule `COC(=O)NC1C(C)OC(OC2C/C=C(/C)C3C=CC4C(OC5CC(OC6CCC(OC7CC(O)C(OC8CCC(O)C(C)O8)C(C)O7)C(C)O6)C(OC(C)=O)C(C)O5)C(C)CC(C)C4C3(C)/C(O)=C3/C(=O)OC4(CC(C=O)=CC(O)C4/C=C\2C)C3=O)CC1(C)[N+](=O)[O-]` (configuration not stated), the GI50 in the test on TK-10 was 1.61 µM (inactive); in the test on EKVX, 1.85 µM (inactive); in the test with U-251, 0.342 µM (active); in the test with SK-MEL-2, 0.475 µM (active); with NCI-H226, 1.06 µM (active); in the test with IGROV-1, 3.44 µM (inactive). The GI50 in the test with SNB-75 is 1.75 µM (inactive); in the test with OVCAR-4, 1.82 µM (inactive); with HCC 2998 it was 0.951 µM (active); in the test with SW-620, 0.989 µM (active); in the test with HCT-15, 0.832 µM; in the test on SNB-19, 0.69 µM (active). Also, the 50% growth inhibitory concentration (GI50) in the test on MDA-N is 0.661 µM (active); in the test with A549, 1.77 µM (inactive); with M14 it was 1.07 µM (active); in the test on OVCAR-3, 0.971 µM (active); with RPMI-8226, 0.957 µM (active); with LXFL 529 it was 0.352 µM (active). Further, the GI50 with OVCAR-8 is 1 µM (active); with SN12C, 0.964 µM (active).
Regarding `CC(=O)/C=C/c1ccc(C)cc1`, the GI50 with TK-10, with EKVX, with U-251, in the test on SK-MEL-2, with NCI-H226 and in the test on IGROV-1 was > 100 µM (inactive) in each case. The GI50 in the test on SNB-75 is > 100 µM (inactive); in the test on OVCAR-4 it was > 100 µM (inactive); with HCC 2998, > 100 µM (inactive); in the test on SW-620, > 100 µM (inactive); in the test on HCT-15 it was over 100 µM; in the test with SNB-19, > 100 µM (inactive). Besides, the GI50 in the test on A549, in the test with M14, in the test on OVCAR-3, with RPMI-8226, with LXFL 529 and with OVCAR-8 was > 100 µM (inactive) throughout. Also, the GI50 in the test with SN12C is > 100 µM (inactive).
As for `COc1ccc(C2(Cl)C(Cl)(C(F)(F)F)C2(Cl)C(F)(F)F)cc1` (configuration not stated), the GI50 with TK-10 was 18.1 µM (inactive); with EKVX it was 17.5 µM (inactive); in the test on U-251, 14.9 µM (inactive); in the test on SK-MEL-2, 14.2 µM (inactive); in the test on NCI-H226 it was 15.5 µM (inactive); in the test on IGROV-1 it was 16.5 µM (inactive). For the same molecule, the GI50 is 14.9 µM (inactive) in the test with SNB-75; 16.4 µM (inactive) with OVCAR-4; 16.3 µM (inactive) in the test on HCC 2998; 15 µM (inactive) in the test on SW-620; 14.2 µM in the test on HCT-15; 15.7 µM (inactive) in the test on SNB-19. Besides, the GI50 in the test on A549 is 14.9 µM (inactive); in the test with M14 it was 11.9 µM (inactive); with OVCAR-3 it was 15.5 µM (inactive); in the test with RPMI-8226, 9.64 µM (inactive); in the test on LXFL 529 it was 13.9 µM (inactive); with OVCAR-8, 12.6 µM (inactive). Also, in the test with SN12C, the GI50 was 15.8 µM (inactive).
Regarding `CC(=O)Nc1ccc(C(=O)NN2C(=O)C(Cl)C2c2ccc(Cl)cc2)cc1` (configuration not stated), the GI50 with TK-10 is > 100 µM (inactive); in the test on EKVX, > 100 µM (inactive); in the test on U-251 it was 23.9 µM (inactive); with SK-MEL-2, 41.6 µM (inactive); in the test with NCI-H226, > 57.4 µM (inactive); with IGROV-1 it was 37.3 µM (inactive). In addition, the GI50 was 16.1 µM (inactive) in the test on SNB-75; > 100 µM (inactive) in the test with OVCAR-4; > 100 µM (inactive) with HCC 2998; > 100 µM (inactive) with SW-620; over 100 µM in the test with HCT-15; 24.2 µM (inactive) in the test with SNB-19. The GI50 in the test with A549 was > 72.4 µM (inactive); with M14, > 100 µM (inactive); with OVCAR-3, 18.8 µM (inactive); with RPMI-8226 it was > 100 µM (inactive); in the test on LXFL 529, 50.6 µM (inactive); with OVCAR-8, 37 µM (inactive). The GI50 in the test with SN12C was 39.6 µM (inactive).
As to `CC(C)=CCCc1c(C)ccc2c1C(=O)C(=O)C(C(C)C)=C2`, the GI50 with TK-10 is 4.41 µM (inactive); with EKVX, > 22 µM (inactive); with U-251, > 22 µM (inactive); with SK-MEL-2, 4.1 µM (inactive); in the test on NCI-H226 it was > 22 µM (inactive); in the test on IGROV-1, 9.84 µM (inactive). Moreover, the GI50 in the test on SNB-75 was 9.62 µM (inactive); in the test on OVCAR-4 it was 3.84 µM (inactive); with HCC 2998, > 22 µM (inactive); in the test with SW-620, 3.86 µM (inactive); with HCT-15, 3.85 µM; with SNB-19, > 22 µM (inactive). Also, the GI50 was > 22 µM (inactive) with A549; 4.24 µM (inactive) in the test on M14; 3.76 µM (inactive) in the test with OVCAR-3; 0.839 µM (active) in the test on RPMI-8226; 3.62 µM (inactive) in the test with LXFL 529; 3.85 µM (inactive) in the test with OVCAR-8. Also, the GI50 in the test on SN12C was 9.06 µM (inactive).
